Measurements reported in US6630124B1, “Combination therapy with VIP antagonist” (Ramot-University Authority for Applied Research and …, priority 1998, dated 2003).
Where no end group is shown, it is not given here. [ ]: non-standard residue; d: D form. The star is where a group is joined. Stearoyl = CCCCCCCCCCCCCCCCCC(=O)*; Nle = CCCC[C@H](N)C(=O)O

B1: (N-Stearyl-Norleucine17) VIPhybrid (peptide)
peptide: Stearoyl-KPRRPYTDNYTRLRKQ[Nle]AVKKYLNSILN-NH2
SMILES: CCCCCCCCCCCCCCCCCC(=O)N[C@@H](CCCCN)C(=O)N1CCC[C@H]1C(=O)N[C@@H](CCCNC(=N)N)C(=O)N[C@@H](CCCNC(=N)N)C(=O)N1CCC[C@H]1C(=O)N[C@@H](Cc1ccc(O)cc1)C(=O)N[C@H](C(=O)N[C@@H](CC(=O)O)C(=O)N[C@@H](CC(N)=O)C(=O)N[C@@H](Cc1ccc(O)cc1)C(=O)N[C@H](C(=O)N[C@@H](CCCNC(=N)N)C(=O)N[C@@H](CC(C)C)C(=O)N[C@@H](CCCNC(=N)N)C(=O)N[C@@H](CCCCN)C(=O)N[C@@H](CCC(N)=O)C(=O)N[C@@H](CCCC)C(=O)N[C@@H](C)C(=O)N[C@H](C(=O)N[C@@H](CCCCN)C(=O)N[C@@H](CCCCN)C(=O)N[C@@H](Cc1ccc(O)cc1)C(=O)N[C@@H](CC(C)C)C(=O)N[C@@H](CC(N)=O)C(=O)N[C@@H](CO)C(=O)N[C@H](C(=O)N[C@@H](CC(C)C)C(=O)N[C@@H](CC(N)=O)C(N)=O)[C@@H](C)CC)C(C)C)[C@@H](C)O)[C@@H](C)O
notes: Synthetic lipophilic VIP antagonist; also called (SN)VIPhybrid; SNVIPhybrid

Legend:
[1] = test system: NCI-H727 non-small cell lung cancer (carcinoid); experiment: MTS cell proliferation assay, SNH and chemotherapy; format: cell-based; conditions: for reduction of the IC50 of the chemotherapeutic agent by SNH: 5 μM SNH, NCI-H727; for nature of the combined effect with SNH: combination with SNH
Method: NCI-H727 and LNCaP were grown in RPMI 1640 medium supplemented with 10% heat inactivated FCS, L-glutamine and antibiotics. HT-29 and CT-26 were grown in DMEM medium supplemented with 10% heat-inactivated FCS (fetal calf serum), L-glutamine and antibiotics. The cells were cultured in 5% CO2/95% air at […] and used during their exponential growth phase. Routinely, the cells which are adherent, were split when a subconfluent monolayer was formed. In different experiments, various concentration of FCS were used. For growth inhibition experiments, subconfluent adherent cells were washed with PBS and treated with trypsin/versene. The cells were pelleted and resuspended in medium to a final concentration of 75,000 cells/mL for NCI-H727. 50,000 cells/mL for LNCaP and HT-29 and 25000 cells/mL for CT-26. These different concentrations were used in order to avoid confluence in the wells at the end of the experiment and correspond to the different doubling times of the cell lines. On day 0, cells suspensions […] were dispensed using a multi-channel pipet into the individual wells of a 96-well tissue culture plate (Nuncion, Nunc Brand Products). […] Cells were incubated for 24 hours in a humidified atmosphere of 95% air/5% CO2 at 37° C. before treatment. On day 1, the cells were treated with different drugs and schedules and maintained under the same conditions. On day 4, viable cell number was determined by a modified MTT assay i.e., MTS non-radioactive cell proliferation assay (Promega). […] Results were finally expressed as percentage of the control, which was obtained from the samples with no drug treatment. Dose-response curves were plotted using a Sigma-Plot software and statistically analyzed using Student test. To determine the effect of the lipophilic VIP antagonist SNH on cell proliferation, cells plated in 96-well microplates for 24 hours as described, were treated with various concentrations of SNH. The peptide was diluted in PBS and […] of the peptide solution was added to each well for a final concentration of the peptide between 10^−510^−9 M. The solvent was added to the control wells. […] A dose-response curve was obtained at concentrations ranging from 2 μM-10 μM (see, FIG. 2). […] The effects of an 8 hours treatment were slightly less, showing that most of the effect is in the initial hours of exposure and much more dose than time dependent. […] For the experiments with the combinations of VIP antagonists and chemotherapeutic agents, on day 0, the cells were plated for 24 hours in medium supplemented with 5% FCS. On day 1, the peptide was added to the wells followed 1 hour later by the chemotherapeutic agents. […] The chemotherapeutic drugs were tested over 7 concentrations, covering as much as possible of the dose response curve of each individual drug. 24 hours later, the medium was exchanged and the cells incubated under the same conditions for another 48 hours. On day 4 the number of viable cells was determined by MTS assay.

[2] = test system: cell lines derived from colon cancer and prostate cancer; experiment: MTS colorimetric proliferation assay, VIP antagonist with chemotherapeutic agents (Example I); format: cell-based; conditions: combination with stearyl-Nle17-neurotensis 6-11 VIP 7-28
Method: Assays were performed with cell lines derived from colon cancer and prostate cancer. Proliferation was assessed using the MTS colorimetric assay of mitochondrial function for living cells. The VIP antagonist (stearyl-Nle17-neurotensis 6-11 VIP 7-28) was used.

MCF-7 cells = experiment: MTT colorimetric assay, breast cancer cells (Example 6); format: cell-based; conditions: for Absorbance at 570 nM: MCF-7, MTT, 5 days
Method: The ability of VIP receptor antagonists to alter the growth of breast cancer cells was investigated in vitro using the MTT colorimetric. The semiautomated MTT assay measures reduction of a tetrazolium compound by tumor cells to formazan. The optical density at 570 nm was determined for 8 wells at each inhibitor concentration. Seeding densities were 5×10^4 cells/well and cells were grown in 96 well plates for 5 days.

[3] = test system: VIP receptor (glioblastoma cells); experiment: cAMP in glioblastoma cells, basal and VIP-stimulated; format: cell-based; conditions: 10 nM VIP
Description: The effects of VIP receptor antagonists on glioblastoma cell lines were investigated.

MDA-MB231 xenografts = experiment: MDA-MB231 breast cancer xenografts in nude mice; format: in vivo, Balb/c nude mice; conditions: after 4 weeks; VIPhyb 10 μg/day s.c., Taxol 1.5 mg i.p. once; PBS control 1121 mm^3
Method: To test the proliferative aspects of VIPhybrid analogs in vivo, nude mice bearing breast cancer xenografts were utilized. Female athymic Balb/c nude mice, 4-5 weeks old, were housed in a pathogen-free temperature controlled isolation room and the diet consisted of autoclaved rodent chow and autoclaved water given ad libitum. MDA-MB231 cells (1×10^7) were injected into the right flank of each mouse subcutaneously. […] PBS (100 μl) or VIPhyb analogs (10 μg/day) were injected subcutaneously adjacent to the tumor. Taxol was injected once (1.5 mg i.p.) after 2 weeks. The tumor volume (height×width×depth) was determined twice weekly by calipers and recorded.

[4] = biological target: T1, VIP receptor on U-87 cells (UniProt P32241 31-457, limits assumed); experiment: competition with 125I-VIP for binding to U-87 cells
T1 construct: whole, on cells; also called VIP1 receptor; VPAC1 receptor
T1 sequence (looked up): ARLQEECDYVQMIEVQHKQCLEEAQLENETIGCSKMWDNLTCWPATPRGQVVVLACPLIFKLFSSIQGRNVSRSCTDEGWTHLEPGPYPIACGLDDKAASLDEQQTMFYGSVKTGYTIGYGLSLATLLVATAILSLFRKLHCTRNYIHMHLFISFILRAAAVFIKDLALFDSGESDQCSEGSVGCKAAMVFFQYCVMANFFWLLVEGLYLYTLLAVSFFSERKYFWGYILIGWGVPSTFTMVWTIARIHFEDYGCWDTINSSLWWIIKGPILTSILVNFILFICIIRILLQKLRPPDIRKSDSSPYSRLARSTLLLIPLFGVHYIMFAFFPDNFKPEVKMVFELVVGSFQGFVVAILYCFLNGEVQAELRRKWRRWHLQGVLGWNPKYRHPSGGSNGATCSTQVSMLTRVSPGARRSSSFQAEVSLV

Row | Molecule | nature of the combined effect with SNH [1] | effect of the combination with the VIP antagonist [2] | enhancement of the antiproliferative activity of the chemotherapeutic agent by the lipophilic VIP antagonist [2] | other results
1 | N.N.[Cl][Pt][Cl] [cisplatin, cis-dichlorodiammineplatinum II] | synergistic | synergistic | – | reduction of the IC50 of the chemotherapeutic agent by SNH [1]: 4 fold
2 | COc1cccc2c1C(=O)c1c(O)c3c(c(O)c1C2=O)C[C@@](O)(C(=O)CO)C[C@@H]3O[C@H]1C[C@H](N)[C@H](O)[C@H](C)O1 [doxorubicine] | less pronounced | synergistic | enhance the antiproliferative activity | –
3 | Cl.Nc1ccn([C@@H]2O[C@H](CO)[C@@H](O)C2(F)F)c(=O)n1 [gemcitabine, 2′-deoxy-2′,2′-difluorocytidine hydrochloride] | only additive | – | enhance the antiproliferative activity | –
4 | CCC1=C[C@@H]2CN(C1)Cc1c([nH]c3ccccc13)[C@@](C(=O)OC)(c1cc3c(cc1OC)N(C)[C@H]1[C@@](O)(C(=O)OC)[C@H](OC(C)=O)[C@]4(CC)C=CCN5CC[C@]31[C@@H]54)C2 [navelbine] | synergistic | synergistic | enhance the antiproliferative activity | reduction of the IC50 of the chemotherapeutic agent by SNH [1]: at least 2 fold
5 | KPRRPYTDNYTRLRKQMAVKKYLNSILN [VIPhyb, earlier hybrid VIP antagonist: neurotensin 6-11 joined to VIP 7-28] | – | – | – | Absorbance at 570 nM (MCF-7 cells; 1 μM): .417 ± .064; Absorbance at 570 nM (MCF-7 cells; 3 μM): .353 ± .048; Absorbance at 570 nM (MCF-7 cells; 10 μM): .317 ± .030; inhibition of MCF-7 proliferation (MCF-7 cells; 10 μM, MTT assay): significantly inhibited; order of peptide potency, inhibition of VIP-stimulated cAMP [3]: (SN)VIPhybrid>VIP hybrid >PTC4495; tumor volume (height×width×depth) (MDA-MB231 xenografts): 508 mm^3
6 | KPRRPYTDNYTRLRKQMAVKKYLNSILN (ends and bridges not checked) [Neurotensis 6-11 VIP7-28 (VIPhybrid)] | – | – | – | IC50 [4]: 70 nM
7 | B1 | – | – | – | IC50 [4]: 500 nM
